Reference: PMC11904993, “Humanized Candida and NanoBiT Assays Expedite Discovery of Bdf1 Bromodomain Inhibitors With Antifungal Potential” (Advanced Science, 2025)
Several values for one entry are separate records, joined by “and”; a condition that tells them apart may be missing. Equal entries are not always repeated. *1 amine or outer side, *2 acyl side, *3 side chain or, on linkers, in order; H or OH if unused. Where a SMILES comes first, the peptide text is derived from it. Bridges are numbered along the chain shown (N, C = ends). [ ]: non-standard residue; d: D form. The star is where a group is joined. pTerphenylCO(4''-OnC5H11) = CCCCCOc1ccc(-c2ccc(-c3ccc(C(=O)*)cc3)cc2)cc1; Orn(4R-OH,5R-OH) = O=C([C@H](C[C@@H](O)[C@@H](O)N[*:3])N[*:1])[*:2]; hTyr(3S-OH,4S-OH) = N[C@H](C(=O)O)[C@H](O)[C@@H](O)c1ccc(O)cc1; Pro(3S-OH,4S-Me) = C[C@H]1CN[C@H](C(=O)O)[C@H]1O; Hyp = O=C(O)[C@@H]1C[C@@H](O)CN1

Tests used:
[1] = test system: C. glabrata strains (WT, pdr1∆ or PDR1 rescue); assay: Growth assays to assess compound efflux; assay type: cell-based; settings: for growth relative to Solvent = 100 (Figure S10B): compound 50 µM, three replicates
Method: Cells from a single colony were diluted in 0.85% NaCl before being counted using a Neubauer chamber. […] The effect of fluconazole was tested by titration on these strains under similar conditions.

[2] = test system: C. glabrata strains expressing WT and mutant Bdf1; assay: Growth inhibition in liquid media, C. glabrata lab strains; settings: Exp 1-3; for %Growth: 50 µM, WT BDF1-flag; for OD at 600 nm: Figure S4B
Method: (§2) Growth on Liquid Media with C. glabrata Lab Strains: Cells were grown at 30 °C in SC+M+C‐U medium (SC medium with 5 mM methionine, 0.25 mM cysteine, without uracil) to an OD600 of 0.5–0.8. […] Plates were incubated at 30 °C and OD600 was measured using a Multiskan FC Microplate Photometer (Thermo Fisher).

[3] = test system: C. glabrata expressing humanized Bdf1 (Brd4 BDs); assay: Growth inhibition in liquid media, humanized C. glabrata strains; settings: 50 µM, Exp 1-3
Method: as §2

CgBdf1 BD1 = CgBdf1 BD1 (Candida glabrata, UniProt Q6FWV7); assay: HTRF assay, inhibition of H4ac4 peptide binding; design: species or system C. glabrata; settings: Fig 1D/2A original data; single experiments Exp1-3
Chain of CgBdf1 BD1 (Q6FWV7 entry or part of it): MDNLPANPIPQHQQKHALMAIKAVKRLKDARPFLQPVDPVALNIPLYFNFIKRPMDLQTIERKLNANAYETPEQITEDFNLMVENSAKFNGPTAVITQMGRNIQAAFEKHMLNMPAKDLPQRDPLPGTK

CgBdf1 BD2 = CgBdf1 BD2 (Candida glabrata, UniProt Q6FWV7); assay: biochemical; assay type: binding, C. glabrata; settings: Fig 1D/2A original data; single experiments Exp1-3
Chain of CgBdf1 BD2 (Q6FWV7 entry or part of it): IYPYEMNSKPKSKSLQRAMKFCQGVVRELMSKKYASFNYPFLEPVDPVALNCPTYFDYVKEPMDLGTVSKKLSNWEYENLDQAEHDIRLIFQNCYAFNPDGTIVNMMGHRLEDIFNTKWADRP

[4] = test system: C. albicans expressing WT Bdf1; assay: Galleria fungal infection model, WT strain; assay type: in vivo, Galleria mellonella; design: key to survival event of one larva (1 = death 0 = no death): 1 = death; 0 = no death; settings: Figure 6B
Method: (§1) Galleria mellonella larvae were purchased from Decathlon (La Tronche, France). They were selected in the late larval stages weighing between 300 and 400 mg. Groups of 10 larvae were injected into the right or left last pro‐leg with 10 µl of either PBS, C. albicans suspensions or antifungal drug using an insulin syringe (BDUltra‐Fine 0.3 ml). C. albicans suspensions of the WT and humanized Bdf1 strains were adjusted to 10^6 cells larva^−1. Antifungal drugs (anidulafungin 5 mg kg^−1 or I‐BET726 66 or 44 mg kg^−1) were injected once 30 min before fungal infection. An infected control group received the C. albicans inoculum and the solvent of the drug. A non‐infected control group received only PBS. After inoculation, larvae were placed in Petri dishes and incubated in the dark at 37 °C. The larvae were monitored for 5 days, and survival outcome was determined. For experiments performed at the lower (44 mg kg^−1) dose of IBET‐726, the difference in protection against infection with humanized versus WT C. albicans strains was more evident using the survival data at 40 h rather than at 100 h post‐infection. Larvae were considered dead when no response was observed following touch. All experiments were performed at least 3 times independently. The significance of survival was assessed by a Log‐rank (Mantel‐Cox) test in GraphPad Prism 10.

[5] = target: S. cerevisiae histone H2A variant H2A.Z fused to LgBiT (UniProt Q12692); assay: NanoBiT assay in live S. cerevisiae cells; settings: parent: est. 1.0; read off a plot
[6] = test system: C. albicans expressing humanized Bdf1; assay: Galleria fungal infection model, humanized strain; assay type: in vivo, Galleria mellonella; design: key to survival event of one larva (1 = death 0 = no death): 1 = death; 0 = no death; settings: Figure 6C; Bdf1-hBD* strain; Time 8 hours
Method: as §1

| Molecule | growth relative to Solvent = 100 (Figure S10B) ([1]; PDR1 Rescue) | growth relative to Solvent = 100 (Figure S10B) ([1]; WT) | growth relative to Solvent = 100 (Figure S10B) ([1]; pdr1∆) | %Growth ([2]; Fig 3E) | %Growth ([3]; Fig 3E, BDF1-hBD1-flag) | %Growth ([3]; Fig 3E, BDF1-hBD2-flag) | %Growth ([3]; Fig 3E, humanized BDF1-flag) | further results |
| --- | --- | --- | --- | --- | --- | --- | --- | --- |
| COc1cc(OC)c2c(=O)[nH]c(-c3cc(C)c(OCCO)c(C)c3)nc2c1 [RVX208] | 70.1855 and 71.3614 and 82.784 | 80.2726 and 64.9447 and 62.8512 | 66.409 and 64.9859 and 67.3918 | 91% and 96% | 95% and 91% and 88% | 94% and 82% and 93% | 80% and 88% and 77% |  |
| Cc1sc2c(c1C)C(c1ccc(Cl)cc1)=N[C@@H](CC(=O)OC(C)(C)C)c1nnc(C)n1-2 [JQ1, reference compound] |  |  |  | 113% and 106% and 114% | 83% and 74% and 78% | 91% and 86% | 46% and 40% and 43% | pIC50 CgBD1 (CgBdf1 BD1): 5.18 and 5.05 and 5.03; pIC50 CgBD2 (CgBdf1 BD2): 6.15 and 6.10 and 6.13; activity against PDR1 deletion strain versus WT/rescue ([1]; 50 µM (I-BET726 1 µM), 20 h): increased efficacy; %Growth ([2]; Fig 3D): 112.7% and 106.1% and 114.4%; OD at 600 nm ([2]; WT BDF1 strain): 0.392 and 0.386 and 0.385; OD at 600 nm ([2]; bdf1-bd1Δ strain): 0.328 and 0.347 and 0.329; OD at 600 nm ([2]; bdf1-bd2Δ strain): 0.195 and 0.225 and 0.183; %Growth ([3]; Fig 3D, humanized BDF1-flag): 46.0% and 39.6% and 43.2% |
| CCCCCOc1ccc(-c2ccc(-c3ccc(C(=O)N[C@H]4C[C@@H](O)[C@@H](O)NC(=O)[C@@H]5[C@@H](O)[C@@H](C)CN5C(=O)[C@H]([C@@H](C)O)NC(=O)[C@H]([C@H](O)[C@@H](O)c5ccc(O)cc5)NC(=O)[C@@H]5C[C@@H](O)CN5C(=O)[C@H]([C@@H](C)O)NC4=O)cc3)cc2)cc1 [anidula-fungin] ({pTerphenylCO(4''-OnC5H11)}-[Orn(4R-OH,5R-OH)]T[Hyp][hTyr(3S-OH,4S-OH)]T[Pro(3S-OH,4S-Me)]; lactam 1-C) |  |  |  |  |  |  |  | survival event of one larva (1 = death 0 = no death) ([4]; Time 10 hours): 1; survival event of one larva (1 = death 0 = no death) ([4]; Time 35 hours): 1; survival event of one larva (1 = death 0 = no death) ([4]; Time 50 hours): 1 |
| CCNC(=O)c1cc2c(-c3cc(C(C)(C)O)ccc3Oc3c(C)cc(F)cc3C)cn(C)c(=O)c2[nH]1 [ABBV744] | 73.7317 and 83.5862 and 73.3043 | 66.394 and 67.598 and 72.0455 | 59.2642 and 64.761 and 73.9837 | 90% and 89% and 91% | 90% and 85% and 80% | 38% and 32% and 37% | 41% and 39% |  |
| C. glabrata Bdf1-SmBiT expressed in S. cerevisiae Y166F; Y343F |  |  |  |  |  |  |  | ratio to parent [5]: 0.27 |
| CCCCCOc1ccc(-c2ccc(-c3ccc(C(=O)N[C@H]4C[C@@H](O)[C@@H](O)NC(=O)[C@@H]5[C@@H](O)[C@@H](C)CN5C(=O)[C@H]([C@@H](C)O)NC(=O)[C@H]([C@H](O)[C@@H](O)c5ccc(O)cc5)NC(=O)[C@@H]5C[C@@H](O)CN5C(=O)[C@H]([C@@H](C)O)NC4=O)cc3)cc2)cc1 [anidulafungin] ({pTerphenylCO(4''-OnC5H11)}-[Orn(4R-OH,5R-OH)]T[Hyp][hTyr(3S-OH,4S-OH)]T[Pro(3S-OH,4S-Me)]; lactam 1-C) |  |  |  |  |  |  |  | survival event of one larva (1 = death 0 = no death) [6]: 1 |
